The values below come from US12427144B2, “Compounds and methods for the targeted degradation of androgen receptor” (Arvinas Operations, Inc., priority 2019, dated 2025).

The assay deals with T1, Androgen Receptor (AR) (Homo sapiens, UniProt P10275).
T1 construct: endogenous in cells; host or cells: VCaP
T1 sequence (P10275 1-920): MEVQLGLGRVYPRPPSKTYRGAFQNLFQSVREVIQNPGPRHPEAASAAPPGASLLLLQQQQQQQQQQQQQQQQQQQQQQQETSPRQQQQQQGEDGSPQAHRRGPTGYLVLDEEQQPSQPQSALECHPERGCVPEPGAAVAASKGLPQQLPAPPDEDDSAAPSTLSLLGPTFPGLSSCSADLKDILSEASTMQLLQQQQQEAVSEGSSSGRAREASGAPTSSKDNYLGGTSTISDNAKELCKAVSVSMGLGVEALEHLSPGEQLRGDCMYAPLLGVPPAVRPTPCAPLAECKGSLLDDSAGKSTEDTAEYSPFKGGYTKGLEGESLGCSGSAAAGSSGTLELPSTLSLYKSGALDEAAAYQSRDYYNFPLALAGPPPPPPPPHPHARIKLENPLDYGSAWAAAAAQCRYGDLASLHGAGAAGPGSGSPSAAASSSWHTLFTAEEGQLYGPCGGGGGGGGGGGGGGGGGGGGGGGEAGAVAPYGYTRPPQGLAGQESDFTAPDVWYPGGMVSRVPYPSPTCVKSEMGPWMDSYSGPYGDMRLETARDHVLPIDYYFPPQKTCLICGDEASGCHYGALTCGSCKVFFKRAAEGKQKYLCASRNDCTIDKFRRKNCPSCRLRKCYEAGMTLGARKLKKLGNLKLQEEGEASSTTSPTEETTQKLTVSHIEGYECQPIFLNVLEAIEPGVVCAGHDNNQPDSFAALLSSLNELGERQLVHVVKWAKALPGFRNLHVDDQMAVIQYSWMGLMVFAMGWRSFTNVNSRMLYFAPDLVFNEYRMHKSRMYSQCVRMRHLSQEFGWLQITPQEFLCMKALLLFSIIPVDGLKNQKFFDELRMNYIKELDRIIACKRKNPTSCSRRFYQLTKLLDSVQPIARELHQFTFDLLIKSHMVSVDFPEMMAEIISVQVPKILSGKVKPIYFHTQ
As to the kind of experiment: AR immunofluorescence staining, high content imager, VCaP cells. Type of assay: cell-based. The settings on record: for DC50: AR degradation by immunofluorescence; for Dmax: maximal AR degradation. The protocol: AR Immunofluorescence Staining of Cells for the High Content Imager was performed as follows: Following treatment of the cells with compound (using the central 60 wells of a 96-well plate), media was removed by aspiration, followed by addition of 50 μL per well of 4% paraformaldehyde (PFA) in PBS supplemented with 2 mM MgCl2 and 2 mM CaCl2. Fixed cells were incubated at RT for 15 minutes. For particularly low adherence cell lines (e.g., VCaP), a 2× solution of 8% PFA was added directly to wells instead. Cells were washed once with 200 μL PBS/well. To permeabilize cells 50 μL/well of 0.1% Triton X-100 in PBS was added and incubated for 5 minutes. Cells were washed once with 200 μL PBSS/well. 100 μL/well of Licor Odyssey Blocking Buffer was added for 1 hour at 20° C. Wells were aspirated and AR antibody (1:1000 in Licor Odyssey blocking buffer; 50 μL/well; CST 5153s) was added. Plates were incubated overnight at 4° C. Plates were washed 3 times with 200 EL PBS/well. The appropriate secondary antibody was added (50 μL/well; diluted in Licor Odyssey blocking buffer) and incubated for 1 hour at RT in the dark as prepared below using Anti-rabbit FITC (1:5000; […]) and Phalloidin-Alexafluor 648 (1:500; […]). Cells were washed once with 200 μL PBS/well. 50 μL DAPI or Hoechst 33342 diluted 1:1000 in Licor Odyssey blocking buffer was added to the wells. Cells were washed 3 times with 200 μL PBS/well. The plates were covered with a clear plastic sealer and refrigerated in the dark until ready to analyze. The cells were analyzed using a Molecular Devices IXM high content imager and analyzed using Molecular Devices metaXpress software suite.

Broadly, the DC50 is the concentration at which degradation of the target reaches its halfway point. Broadly, the Dmax is the largest share of the target that was removed. A low value points to a partial loss of target. With `Cc1cc(O[C@H]2C(C)(C)[C@H](NC(=O)c3ccc(N4CCC(CC5CCN(C67CC(C(=O)NC8CCC(=O)NC8=O)(C6)C7)CC5)CC4)cc3)C2(C)C)cc(C)c1C#N` (mixture of isomers) [Compound 70, rac-N-(2,6-dioxopiperidin-3-yl)-3-(4-{[1-(4-{[(1r,3r)-3-(4-cyano-3,5-dimethylphenoxy)-2,2,4,4-tetramethylcyclobutyl]carbamoyl}phenyl)piperidin-4-yl]methyl}piperidin-1-yl)bicyclo[1.1.1]pentane-1-carboxamide], the DC50 was less than 1 nM and the Dmax is less than 50%.
The corresponding values for `Cc1cc(O[C@H]2C(C)(C)[C@H](NC(=O)c3ccc(N4CCO[C@H](CN5CCN(c6ccc(C(=O)N[C@@H]7CCC(=O)NC7=O)c(F)c6)CC5)C4)cc3)C2(C)C)cc(C)c1C#N` (single isomer, unassigned) [Compound 49] are less than 1 nM and no less than 70%.
On the same counts, the results for `COc1cc(O[C@H]2C(C)(C)[C@H](NC(=O)c3ccc(N4CCC(CN5CCN(c6ccc(C(=O)NC7CCC(=O)NC7=O)c(F)c6)CC5)CC4)cc3)C2(C)C)ccc1C#N` (stereo partly drawn) [Compound 1, 4-(4-((1-(4-(((1R,3R)-3-(4-cyano-3-methoxyphenoxy)-2,2,4,4-tetramethylcyclobutyl)carbamoyl)phenyl)piperidin-4-yl)methyl)piperazin-1-yl)-N-(2,6-dioxopiperidin-3-yl)-2-fluorobenzamide] are less than 1 nM and no less than 70%.
As for `COc1cc(O[C@H]2C(C)(C)[C@H](NC(=O)c3ccc(N4CCC(CN5CCN(c6ccc(C(=O)N[C@@H]7CCC(=O)NC7=O)c(F)c6)CC5)CC4)cc3)C2(C)C)ccc1C#N` [Compound 14, 4-(4-((1-(4-(((1R,3R)-3-(4-cyano-3-methoxyphenoxy)-2,2,4,4-tetramethylcyclobutyl)carbamoyl)phenyl)piperidin-4-yl)methyl)piperazin-1-yl)-N—((R)-2,6-dioxopiperidin-3-yl)-2-fluorobenzamide], the DC50 fell in the range of 1 to 10 nM and the Dmax is less than 50%.
The corresponding values for `CC1(C)[C@H](NC(=O)c2ccc(N3CCC(CN4CCN(c5ccc(C(=O)NC6CCC(=O)NC6=O)c(F)c5)CC4)CC3)nn2)C(C)(C)[C@H]1Oc1ccc(C#N)c(Cl)c1` (stereo partly drawn) [Compound 17, N-((1R,3R)-3-(3-chloro-4-cyanophenoxy)-2,2,4,4-tetramethylcyclobutyl)-6-(4-((4-(4-((2,6-dioxopiperidin-3-yl)carbamoyl)-3-fluorophenyl)piperazin-1-yl)methyl)piperidin-1-yl)pyridazine-3-carboxamide] are less than 1 nM and 50 to 70%.
In the case of `CC1(C)[C@H](NC(=O)c2cnc(N3CCC(CN4CCN(c5ccc(C(=O)NC6CCC(=O)NC6=O)c(F)c5)CC4)CC3)cn2)C(C)(C)[C@H]1Oc1ccc(C#N)c(Cl)c1` (stereo partly drawn) [Compound 18, N-((1R,3R)-3-(3-chloro-4-cyanophenoxy)-2,2,4,4-tetramethylcyclobutyl)-5-(4-((4-(4-((2,6-dioxopiperidin-3-yl)carbamoyl)-3-fluorophenyl)piperazin-1-yl)methyl)piperidin-1-yl)pyrazine-2-carboxamide], the DC50 lay within 1 to 10 nM and the Dmax lay within 50 to 70%.
The corresponding values for `CC1(C)[C@H](NC(=O)c2ccc(N3CCC(CN4CCN(c5ccc(C(=O)NC6CCC(=O)NC6=O)c(F)c5)CC4)CC3)cc2)C(C)(C)[C@H]1Oc1ccc(C#N)c(Cl)c1` (stereo partly drawn) [Compound 19, 4-(4-((1-(4-(((1R,3R)-3-(3-chloro-4-cyanophenoxy)-2,2,4,4-tetramethylcyclobutyl)carbamoyl)phenyl)piperidin-4-yl)methyl)piperazin-1-yl)-N-(2,6-dioxopiperidin-3-yl)-2-fluorobenzamide] are less than 1 nM and no less than 70%.
Molecule `Cc1cc(O[C@H]2C(C)(C)[C@H](NC(=O)c3ccc(N4CCC(CN5CCN(c6ccc(C(=O)NC7CCC(=O)NC7=O)c(F)c6)CC5)CC4)cc3)C2(C)C)cc(C)c1C#N` (stereo partly drawn) [Compound 20, 4-(4-((1-(4-(((1R,3R)-3-(4-cyano-3,5-dimethylphenoxy)-2,2,4,4-tetramethylcyclobutyl)carbamoyl)phenyl)piperidin-4-yl)methyl)piperazin-1-yl)-N-(2,6-dioxopiperidin-3-yl)-2-fluorobenzamide] showed a DC50 of less than 1 nM and a Dmax of no less than 70%.
On the same counts, the results for `COc1cc(O[C@H]2C(C)(C)[C@H](NC(=O)c3ccc(N4CCC(CN5CCN(c6ccc(C(=O)N[C@H]7CCC(=O)NC7=O)c(F)c6)CC5)CC4)cc3)C2(C)C)ccc1C#N` [Compound 21, 4-(4-((1-(4-(((1R,3R)-3-(4-cyano-3-methoxyphenoxy)-2,2,4,4-tetramethylcyclobutyl)carbamoyl)phenyl)piperidin-4-yl)methyl)piperazin-1-yl)-N—((S)-2,6-dioxopiperidin-3-yl)-2-fluorobenzamide] are less than 1 nM and no less than 70%.
On the same counts, the results for `N#Cc1ccc(O[C@H]2CC[C@H](NC(=O)c3ccc(N4CCC(CN5CCN(c6ccc(C(=O)NC7CCC(=O)NC7=O)nc6)CC5)CC4)nn3)CC2)cc1Cl` (stereo partly drawn) [Compound 22, N-((1R,4R)-4-(3-chloro-4-cyanophenoxy)cyclohexyl)-6-(4-((4-(6-((2,6-dioxopiperidin-3-yl)carbamoyl)pyridin-3-yl)piperazin-1-yl)methyl)piperidin-1-yl)pyridazine-3-carboxamide] are less than 1 nM and no less than 70%.
`N#Cc1ccc(O[C@H]2CC[C@H](NC(=O)c3ccc(N4CCC(CN5CCN(c6ccc(C(=O)NC7CCC(=O)NC7=O)cc6)CC5)CC4)nn3)CC2)cc1Cl` (stereo partly shown) [Compound 23, N-[4-(3-chloro-4-cyano-phenoxy)cyclohexyl]-6-[4-[[4-[4-[(2,6-dioxo-3-piperidyl)carbamoyl]phenyl]piperazin-1-yl]methyl]-1-piperidyl]pyridazine-3-carboxamide] came in with a DC50 of less than 1 nM and a Dmax of no less than 70%.
`CC(C)N(CC1CCN(c2cnc(C(=O)N[C@H]3CC[C@H](Oc4ccc(C#N)c(Cl)c4)CC3)cn2)CC1)[C@H]1C[C@H](Oc2ccc(C(=O)NC3CCC(=O)NC3=O)nc2)C1` (stereo partly shown) [Compound 24, N-[4-(3-chloro-4-cyano-phenoxy)cyclohexyl]-5-[4-[[[3-[[6-[(2,6-dioxo-3-piperidyl)carbamoyl]-3-pyridyl]oxy]cyclobutyl]-isopropyl-amino]methyl]-1-piperidyl]pyrazine-2-carboxamide] came in with a DC50 of less than 1 nM and a Dmax of no less than 70%.
On the same counts, the results for `CC(C)N(CC1CCN(c2cnc(C(=O)N[C@H]3CC[C@H](Oc4ccc(C#N)c(Cl)c4)CC3)cn2)CC1)[C@H]1C[C@H](Oc2ccc(C(=O)NC3CCC(=O)NC3=O)c(F)c2)C1` (stereo partly drawn) [Compound 25, N-((1R,4R)-4-(3-chloro-4-cyanophenoxy)cyclohexyl)-5-(4-((((1R,3R)-3-(4-((2,6-dioxopiperidin-3-yl)carbamoyl)-3-fluorophenoxy)cyclobutyl)(isopropyl)amino)methyl)piperidin-1-yl)pyrazine-2-carboxamide] are less than 1 nM and 50 to 70%.
As for `N#Cc1ccc(O[C@H]2CC[C@H](NC(=O)c3ccc(N4CCC(CN5CCN(c6ccc(C(=O)NC7CCC(=O)NC7=O)c(F)c6)CC5)CC4)nn3)CC2)cc1Cl` (stereo partly drawn) [Compound 26, N-((1R,4R)-4-(3-chloro-4-cyanophenoxy)cyclohexyl)-6-(4-((4-(4-((2,6-dioxopiperidin-3-yl)carbamoyl)-3-fluorophenyl)piperazin-1-yl)methyl)piperidin-1-yl)pyridazine-3-carboxamide], the DC50 was less than 1 nM and the Dmax is no less than 70%.
